# “Also recorded” adds a separate entry of the source.
# Columns and labels:
# Type in all cases: in vivo, female Sprague-Dawley rats
# [1] = tested on: acute hyperactive bladder; assay: Continuous CMG, acute hyperactive bladder model with intravesical PS and KCl (Examples 7-8)
# Protocol: An animal model for acute hyperactive bladder in rats was developed using intravesical infusion of PS, an agent used to break down urothelial barrier function and physiological concentrations of KCl.
# Continuous CMGs were performed in urethane-anesthetized female rats. The bladder was filled (0.04 ml/min) with normal saline followed by intravesical infusion for a 60 minute period with a test solution comprising either KCl (100 or 500 mM) or PS (10 or 30 mg/ml). Following this, 10 mg/ml PS treated animals were infused intravesically with 100, 300 or 500 mM KCl. Some animals were pretreated with capsaicin ([…], sc) four days before the experiments.
# Animal Preparation. The study was performed on 40 female Sprague-Dawley rats weighing 250-300 gm. Animals were anesthetized with 1.2 gm/kg urethane injected subcutaneously. Body temperature was maintained in the physiological range using a heating lamp.
# Cystometrogram (CMG). PE-50 tubing (Clay-Adams, Parsippany, N.J.) was inserted into the bladder through the urethra and connected via a three-way stopcock to a pressure transducer and to a syringe pump. This was used for recording intravesical pressure and for infusing solutions into the bladder. A control CMG was performed by slowly filling the bladder with saline (0.04 ml/min) to elicit repetitive voiding. The amplitude, PT, compliance and intercontraction interval (ICI) of reflex bladder contractions were recorded. Pressure threshold (PT) represents the pressure that induces the initial bladder contraction. PT often has been used as a parameter corresponding to afferent nerve activity for the induction of reflex bladder contractions. Measurements in each animal represented the average of 3 to 5 bladder contractions.
# After performing control CMGs with saline infusion, three intravesical infusion experiments were performed in parallel: (1) infusion of KCl (100 or 500 mM in saline) for one hour (N=4 in each group); (2) infusion of PS (Sigma Chemical Co.; 30 mg/ml in saline) for one hour (N=6); and (3) infusion of PS (10 mg/ml) for one hour, followed by 100, 300 or 500 mM KCl for one hour (N=6, in each subgroup). In four animals, capsaicin dissolved in a vehicle containing 10% ethanol, 10% TWEEN®80 and 80% physiological saline, at a concentration of 20 mg/ml was given subcutaneously in divided doses on 2 consecutive days. The doses included 25 and 50 mg/kg at a 12-hour interval on the first day and 50 mg/kg on the second day, as previously described (C. L. Cheng et al., 1993, Am. J. Physiol. 265:R132-138). All injections were performed under halothane anesthesia. Four days after the last dosage of capsaicin, the animals were anesthetized and treated with intravesical administration of PS (10 mg/ml) for 1 hour followed by KCl (500 mM) infusion.
# Suppression of Micturition Reflex. To evaluate the direct effects of potassium on detrusor muscle, micturition reflex was blocked in 4 animals by either intravenous hexamethonium injection (25 mg/kg) (N=2) or transection of bilateral pelvic nerves (N=2).
# Statistical Analysis. Statistical analyses were performed using Student's t test for paired or unpaired data, as applicable, with p<0.05 considered significant. Quantitative data are expressed in Example 8 (below) as means plus or minus standard error.
# [2] = tested on: hyperactive bladder (PS/KCl); assay: Continuous CMG, hyperactive bladder induced by PS/KCl (Examples 5-6)
# Protocol: (§1) This was followed by instillation of liposomes (LP) in saline (in the case of the former) or LP/KCl.
# (§2) Intravesical bladder pressure was recorded via a transurethral catheter in adult female Sprague-Dawley rats anesthetized with urethane (1.2 g/kg) administered by subcutaneous injection (sc). Some animals were pretreated with capsaicin (125 mg/kg, sc) four days prior to the experiments. […] Parameters measured included intercontraction interval (ICI), amplitude of bladder contractions, compliance and micturition pressure threshold (PT).
# (§3) Animal Preparation. Thirty-four female Sprague-Dawley rats (250-300 g) were used in this study. Animals were anesthetized with urethane (1.2 g/kg, sc). Body temperature was maintained in the physiological range using a heating lamp.
# (§4) Cystometrogram (CMG). A transurethral bladder catheter (PE-50) was connected via a three-way stopcock to a pressure transducer and to a syringe pump. This was used to record intravesical pressure and to infuse solutions into the bladder. A control CMG was performed by slowly filling the bladder with saline (0.04 ml/min) to elicit repetitive voiding. The parameters recorded were amplitude, PT, compliance, and ICI of reflex bladder contractions. Measurements in each animal represented the average of 3 to 5 bladder contractions.
# (§5) Induction of a Hyperactive Bladder. […] L. Cheng et al., 1993, Am. J. Physiol. 265:R132-138). The experimental design is illustrated in FIG. 7. The KCl concentration used was within the range of concentrations present in normal rat urine (M. Ohnishi et al., 2001, Toxicol. Appl. Pharmacol. 174:122-129).
# (§6) Preparation of Liposomes (LP). LP were prepared as described by Kirby and Gregoriadis (C. J. Kirby and G. Gregoriadia, 1984, “A simple procedure for preparing liposomes capable of high encapsulation efficiency under mild conditions,” Liposome Technology; G. Gregnoriadis, Ed., C.R.C. Press, Inc., Boca Raton, Fla., Vol. 1, p. 20). Briefly, LP were constructed as a 2:1 molar ratio of L-α-phosphatidylcholine and cholesterol (Sigma Chemical Co., St. Louis, Mo.) to a final lipid concentration of 2 mg/ml in saline. Lipids in chloroform were dried down together in the proper ratio under nitrogen. The residues were reconstituted as LP in saline or 500 mM KCl by intense sonication.
# (§7) Statistical Analyis. Statistical analyses were performed using Student's t test for paired or unpaired data, where applicable. A p-value less than 0.05 was considered significant. All data are expressed in Example 2 (below) as means±S.E.
# [3] = tested on: chemically induced bladder hyperactivity; assay: Cystometrogram (CMG): liposomes of various lipids infused in the presence of KCl after protamine sulfate (Examples 1-4)
# Source text: Bladder reflex activity in thirty-four (34) female Sprague-Dawley rats (200-250 g) was studied by cystometry performed under anesthesia with urethane (1.2 g/kg) administered by subcutaneous injection. Body temperature was maintained in the physiologic range using a heating lamp. A transurethral bladder catheter (PE-50) connected by a three-way stopcock to a pressure transducer and to a syringe pump was used to record intravesical pressure and to infuse solutions into the bladder. A control cystometrogram (CMG) was performed by slowly filling the bladder with saline at a rate of 0.04 ml/min to elicit repetitive voiding. The bladder contraction frequency of the reflex bladder contractions were recorded. After performing control CMGs with saline infusion for 3 hours, protamine sulfate (PS) (Sigma Chemical; 10 mg/ml) was infused at a rate of 0.04 ml/min for 1 hour to increase epithelial permeability followed by infusion of the irritant KCl (500 mM) for 1 hour. Subsequently, liposomes made from lipids of various compositions then were infused in the presence of a high concentration of KCl for 2 hours.
# The effect of charge on the lipid headgroup in reducing bladder activity in three animal groups (n=5) was determined. Neutrally charged liposomes prepared with L-α-PC (a zwitterionic lipid egg PC) were compared against liposomes having either a positively or negatively charged polar headgroup, namely, 1,2-dioleoyl-3-trimethylammonium-propane (DOTAP) and 1-α-phosphatidylserine (POPS), respectively.
# Liposomes were prepared as described by Kirby and Gregoriadis (Kirby, C. J. and Gregoriadia, G., “A simple procedure for preparing liposomes capable of high encapsulation efficiency under mild conditions,” Liposome Technology, G. Gregnoriadis, Ed., C.R.C. Press, Inc., Boca Raton, Fla., 1984, Vol. 1, p. 20, 1984). Briefly, liposomes were constructed as a 2:1 molar ratio of L-α-phosphatidylcholine and cholesterol (Sigma Chemical Co., St. Louis, Mo.) to a final lipid concentration of 1-2 mg/ml in saline. Lipids in chloroform were dried down together in the proper ratio under nitrogen. The residues were reconstituted as liposomes in saline or 500 mM KCl by intense sonication. This lipid composition produced liposomes with no net charge.
# Statistical analyses were performed using Student's t test for paired or unpaired data, where applicable. A P-value less than 0.05 was considered significant. All data were expressed as means±S.E. (standard error).
# Neutrally charged liposomes prepared with sphingomyelin were compared against liposomes prepared from dihydrosphingomyelin and two pure synthetic lipids: 1,2-distearoyl-sn-glycero-3-phosphocholine (DSPC) and 1,-oleoyl-2-stearoyl-sn-glycero-3-phosphocholine (OSPC).
# The methodology of this investigation is the same as described above in Example 1 with the exception that the preparation of liposomes was modified from Example 1. Briefly, liposomes were constructed as a 2:1 molar ratio of sphingomyelin and cholesterol (Sigma Chemical Co., St. Louis, Mo.) to a final lipid concentration of 1-2 mg/ml in saline. Lipids in chloroform were dried down together in the proper ratio under nitrogen. The residues were reconstituted as liposomes in saline or 500 mM KCl by intense sonication. This lipid composition produced sphingomyelin liposomes with no net charge.
# Sphingomyelin devoid of its phosphorylcholine head group generates the molecule ceramide, a well known lipid second messenger which mediates a wide range of cellular responses to external stimuli, and also is used for the biosynthesis of sphingomyelin and glycosphingolipids. Because ceramide cannot form stable liposomes by itself, its effect on bladder hyperactivity was tested by including it at 1 mol % in an inert lipid, namely, 1,2-distearoyl-sn-glycero-3-phosphocholine (DSPC).
# The methodology of this investigation is the same as described above in Example 1 with the exception that the preparation of liposomes was modified from Example 1. […]
# [4] = tested on: hyperactive bladder (acetic acid); assay: Continuous CMG, hyperactive bladder induced by acetic acid (Examples 5-6)
# Protocol: as §1, §2, §3, §4, §5, §6, §7
# [5] = Table 1A: PS 10 mg/ml infusion 1 hour after saline, N=6
# [6] = AA 1 hr in capsaicin pretreated rats, N=4
# [7] = AA 2 hr in capsaicin pretreated rats, N=4
# [8] = AA at 1 hour, capsaicin pretreated animals
# [9] = AA at 2 hours, capsaicin pretreated animals
# [10] = Table 2A series: saline, AA 0.1% 1 h, LP 2 h, N=6
# [11] = Table 2B series: saline, AA 0.1% 1 h, saline, N=6
# [12] = Table 2C series: saline, LP 1 h, AA 1 h, N=6
compound,measurement,setting,value
protamine sulfate [PS],Amplitude,"[1]; 10 mg/ml PS, one hour, N=18",25.3 ± 2.0 cm H2O
same,Compliance,"[1]; 10 mg/ml PS, one hour, N=18",0.176 ± 0.013 ml/cm H2O
same,ICI,"[1]; 10 mg/ml PS, one hour, N=18",17.8 ± 0.7 min
same,PT,"[1]; 10 mg/ml PS, one hour, N=18",3.4 ± 0.9 cm H2O
same,Amplitude,"[1]; 30 mg/ml PS, one hour, N=6",28.3 ± 3.1 cm H2O
same,Compliance,"[1]; 30 mg/ml PS, one hour, N=6",0.083 ± 0.022 ml/cm H2O
same,ICI,"[1]; 30 mg/ml PS, one hour, N=6",2.7 ± 0.7 min
same,PT,"[1]; 30 mg/ml PS, one hour, N=6",7.8 ± 1.1 cm H2O
same,ICI decrease,[1]; PS 30 mg/ml,80.6%
same,PT increase,[1]; PS 30 mg/ml,36.8%
same,compliance decrease,[1]; PS 30 mg/ml,63.6%
same,delay to irritative effect,[1]; PS 30 mg/ml,40 to 45 min
same,bladder hyperactivity,[1]; high concentrations of PS,induced bladder hyperactivity (decreased ICI)
same,irritative effects / CMG parameters,"[1]; low concentration of PS (10 mg/ml), one hour",not observed; also recorded: no significant change; also recorded: produced no effect
same,Amplitude,[2]; [5],27.5 ± 0.7 cm H2O
same,Compliance,[2]; [5],0.210 ± 0.031 ml/cm H2O
same,ICI,[2]; [5],14.9 ± 1.7 min
same,PT,[2]; [5],5.9 ± 0.9 cm H2O
same,change of ICI / CMGs,[2]; infused alone: PS 10 mg/ml or KCl 500 mM,not changed; also recorded: did not significantly change the CMGs
1-alkyl-2-acetoyl-sn-glycero-3-phosphocholine [PAF],bladder reflex activity,[3]; instilled alone or included with DSPC liposomes at 1-5 mol %,aggravated the bladder reflex activity
ceramide,effect on efficacy of DSPC liposomes in reducing bladder contraction frequency,[3]; included at 1 mol % in DSPC liposomes,significantly increased the efficacy of DSPC
cerebroside,effect on efficacy of DSPC liposomes in reducing bladder contraction frequency,[3]; DSPC/cerebroside and cholesterol liposomes,significantly increased the efficacy of DSPC
"CC(=O)O [AA, acetic acid]",compliance reduction,"[4]; AA 0.1%, two series of experiments",71-76%
same,ICI,"[4]; AA 1 hr in capsaicin pretreated rats (125 mg/kg sc, four days before), N=4",10.2 ± 3.0 min
same,Amplitude,[4]; [6],20.9 ± 2.5 cm H2O
same,Compliance,[4]; [6],0.152±0.028 ml/cm H2O
same,PT,[4]; [6],6.7 ± 0.2 cm H2O
same,Amplitude,[4]; [7],23.6 ± 5.7 cm H2O
same,Compliance,[4]; [7],0.082±0.024 ml/cm H2O
same,ICI,[4]; [7],4.6 ± 1.2 min
same,PT,[4]; [7],6.7 ± 0.7 cm H2O
same,ICI reduction,[4]; [8],51%
same,compliance reduction,[4]; [8],33%
same,ICI decrease,[4]; [9],78%
same,compliance decrease,[4]; [9],64%
same,Amplitude change,[4]; AA infusion,slight increase
same,PT change,[4]; AA infusion,not significantly changed
same,bladder hyperactivity in CMG tracings / summary,"[4]; FIGS. 10A-10F, summary of Examples 5-6",elicited bladder hyperactivity
same,Amplitude,[4]; [10],36.8 ± 6.5 cm H2O
same,Compliance,[4]; [10],0.071±0.016 ml/cm H2O
same,ICI,[4]; [10],2.4 ± 0.5 min
same,PT,[4]; [10],8.3 ± 0.9 cm H2O
same,Amplitude,[4]; [11],37.0 ± 7.0 cm H2O
same,Compliance,[4]; [11],0.079±0.026 ml/cm H2O
same,ICI,[4]; [11],2.9 ± 0.9 min
same,PT,[4]; [11],9.1 ± 1.4 cm H2O
same,Amplitude,[4]; [12],38.0 ± 1.3 cm H2O
same,Compliance,[4]; [12],0.071 ± 0.022 ml/cm H2O
same,ICI,[4]; [12],3.1 ± 0.8 min
same,PT,[4]; [12],6.7 ± 0.7 cm H2O
same,time until irritative effect evident,[4]; following AA infusion,20 to 30 min
"COc1cc(CNC(=O)CCCCC=CC(C)C)ccc1O [capsaicin, 8-methyl-N-vanillyl-6-nonenamid]",ICI decrease,"[1]; capsaicin pretreated animals, PS 10 mg/ml then KCl 500 mM, 2 hours of infusion",35.5%
same,delay of hyperactive bladder,"[1]; capsaicin pretreated animals, sequential PS 10 mg/ml and KCl 500 mM",about 1 hour
same,delay of onset of irritative effects,"[1]; capsaicin pretreatment, PS 10 mg/ml then KCl 500 mM",~60 min
same,PS/KCl-induced bladder hyperactivity after capsaicin pretreatment,"[1]; capsaicin sc in divided doses, four days before",suppressed PS/KCl-induced bladder hyperactivity
same,delay of bladder hyperactivity evoked by AA,[4]; capsaicin pretreated animals,0.5 to 1 h
same,delay of onset of the irritative effects of AA,[4]; pretreatment with capsaicin 125 mg/kg sc four days before,30 to 60 min

# Reference: US8110217B2, “Sphingomyelin liposomes for the treatment of hyperactive bladder disorders” (priority 2001, dated 2012)
